Among the test systems are ACHN renal; SK-MEL-28 melanoma; NCI-H460 lung; SR leukemia; OVCAR-5 ovarian; NCI-H23 lung; CAKI-1 renal; HL-60(TB) leukemia; NCI/ADR-RES ovarian; MDA-MB-435; SF-268 CNS; RPMI-8226 leukemia; SK-MEL-2 melanoma; OVCAR-3 ovarian; SN12C renal; MDA-MB-231 breast; CCRF-CEM leukemia; HCT-116 colon; HOP-92 NSCLC.
Holding throughout (test): NCI anticancer screen, dose series, 48 h

Molecules are shown by their SMILES.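 Compound exposure: 48 hours, 5 concentrations, 96-well plates. TGI is the concentration that stops growth completely.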 Bounds are passed on as bounds.

Regarding `COc1ccc2oc(=N)c(C(=O)NCc3ccccc3)cc2c1`, the TGI with ACHN renal was 73.9 µM; with SK-MEL-28 melanoma, greater than 100 µM; in the experiment with NCI-H460 lung, greater than 100 µM; in the experiment on SR leukemia, greater than 100 µM; in the experiment on OVCAR-5 ovarian, greater than 100 µM; with NCI-H23 lung it was 43.1 µM. The TGI in the experiment on CAKI-1 renal was greater than 100 µM; in the experiment with HL-60(TB) leukemia it was greater than 100 µM; with NCI/ADR-RES ovarian it was 36.8 µM; in the experiment with MDA-MB-435 it was 34.2 µM; with SF-268 CNS it was 52.5 µM; in the experiment with RPMI-8226 leukemia it was greater than 100 µM. Moreover, the TGI with SK-MEL-2 melanoma was 43.5 µM; in the experiment on OVCAR-3 ovarian, greater than 100 µM; with SN12C renal, greater than 100 µM; with MDA-MB-231 breast it was 58.1 µM; in the experiment on CCRF-CEM leukemia, greater than 100 µM; in the experiment with HCT-116 colon, greater than 100 µM.

Take `N=c1oc2c(Cl)cc(Cl)cc2cc1C(=O)Nc1cccc2ccccc12`: the TGI in the experiment with ACHN renal was 11.2 µM; with SK-MEL-28 melanoma, greater than 100 µM; in the experiment with NCI-H460 lung, 62.1 µM; in the experiment with SR leukemia it was greater than 21.1 µM; in the experiment with OVCAR-5 ovarian, greater than 100 µM; with NCI-H23 lung, greater than 52.6 µM. Besides, the TGI with CAKI-1 renal is greater than 67.7 µM; in the experiment on HL-60(TB) leukemia it was greater than 100 µM; with NCI/ADR-RES ovarian, 28.2 µM; with MDA-MB-435, greater than 100 µM; with SF-268 CNS, greater than 100 µM; with RPMI-8226 leukemia, 53.3 µM. Also, the TGI in the experiment with OVCAR-3 ovarian is greater than 40 µM; with SN12C renal, 12.8 µM; with MDA-MB-231 breast, 11.3 µM; in the experiment on CCRF-CEM leukemia, 14.4 µM; in the experiment with HOP-92 NSCLC, 97.7 µM; in the experiment with HCT-116 colon it was 40.6 µM.

As to `S=c1sc2c(s1)SCCCCSCCCCSc1sc(=S)sc1SCCCCSCCCCS2`, the TGI with ACHN renal, in the experiment on SK-MEL-28 melanoma, with NCI-H460 lung, with SR leukemia, with OVCAR-5 ovarian and in the experiment on NCI-H23 lung was greater than 100 µM in each case. The TGI in the experiment with CAKI-1 renal, in the experiment with HL-60(TB) leukemia, with NCI/ADR-RES ovarian, in the experiment with MDA-MB-435, with SF-268 CNS and in the experiment on RPMI-8226 leukemia was greater than 100 µM throughout. The TGI in the experiment on SK-MEL-2 melanoma, in the experiment on OVCAR-3 ovarian, in the experiment on SN12C renal, in the experiment on MDA-MB-231 breast, with CCRF-CEM leukemia and in the experiment with HCT-116 colon was greater than 100 µM each time.

In the case of `COCCN(C(C)=O)C1CCC2(SCCS2)c2[nH]c3ccccc3c21` (configuration not stated), the TGI in the experiment with ACHN renal, in the experiment with SK-MEL-28 melanoma, in the experiment on NCI-H460 lung, in the experiment on SR leukemia, in the experiment on OVCAR-5 ovarian and in the experiment on NCI-H23 lung was greater than 100 µM each time. Also, the TGI with CAKI-1 renal, in the experiment on HL-60(TB) leukemia, with NCI/ADR-RES ovarian, in the experiment with MDA-MB-435, in the experiment with SF-268 CNS and in the experiment with RPMI-8226 leukemia was greater than 100 µM throughout. For the same compound, the TGI with OVCAR-3 ovarian, in the experiment with SN12C renal, in the experiment on MDA-MB-231 breast, in the experiment with CCRF-CEM leukemia, in the experiment with HOP-92 NSCLC and in the experiment on HCT-116 colon was greater than 100 µM each time.

As to `C=CCOc1ccc(/C(N=Nc2ccc(Cl)cc2)=N/NC(=O)c2ccccc2)cc1OC`, the TGI with ACHN renal, in the experiment with SK-MEL-28 melanoma, in the experiment with NCI-H460 lung, in the experiment with SR leukemia, with OVCAR-5 ovarian and with NCI-H23 lung was greater than 100 µM throughout. In addition, the TGI in the experiment with CAKI-1 renal, in the experiment on HL-60(TB) leukemia, in the experiment on NCI/ADR-RES ovarian, in the experiment with MDA-MB-435, in the experiment on SF-268 CNS and in the experiment with SK-MEL-2 melanoma was greater than 100 µM each time. Further, the TGI is greater than 100 µM with OVCAR-3 ovarian; greater than 100 µM in the experiment on SN12C renal; greater than 100 µM with MDA-MB-231 breast; 86.9 µM in the experiment with CCRF-CEM leukemia; 91.6 µM in the experiment with HOP-92 NSCLC; greater than 100 µM with HCT-116 colon.

As for `CCC1NC(=O)C1NC(=O)OC` (configuration not stated), the TGI with ACHN renal, in the experiment on SK-MEL-28 melanoma, in the experiment on NCI-H460 lung, in the experiment on SR leukemia, in the experiment on OVCAR-5 ovarian and in the experiment on NCI-H23 lung was greater than 100 µM in each case. Further, the TGI in the experiment on CAKI-1 renal, in the experiment with HL-60(TB) leukemia, in the experiment on NCI/ADR-RES ovarian, in the experiment on MDA-MB-435, in the experiment on RPMI-8226 leukemia and in the experiment on SK-MEL-2 melanoma was greater than 100 µM throughout. Also, the TGI in the experiment on OVCAR-3 ovarian, in the experiment on SN12C renal, in the experiment with MDA-MB-231 breast, in the experiment on CCRF-CEM leukemia, in the experiment on HOP-92 NSCLC and in the experiment on HCT-116 colon was greater than 100 µM throughout.

With `CCOC(CN=C=S)OCC`, the TGI in the experiment on ACHN renal, with SK-MEL-28 melanoma, in the experiment on NCI-H460 lung, in the experiment with SR leukemia, with NCI-H23 lung and with CAKI-1 renal was greater than 10 µM throughout. Further, the TGI in the experiment with HL-60(TB) leukemia, in the experiment with NCI/ADR-RES ovarian, with MDA-MB-435, in the experiment on SF-268 CNS, with RPMI-8226 leukemia and in the experiment on SK-MEL-2 melanoma was greater than 10 µM in each case. Further, the TGI in the experiment with OVCAR-3 ovarian, with SN12C renal, in the experiment with MDA-MB-231 breast, in the experiment on CCRF-CEM leukemia, with HOP-92 NSCLC and with HCT-116 colon was greater than 10 µM throughout.

With `O=C(c1cccc2ccccc12)C1(Br)S(=O)(=O)OCCOS1(=O)=O`, the TGI in the experiment with ACHN renal, with SK-MEL-28 melanoma, in the experiment with NCI-H460 lung, in the experiment with SR leukemia, with OVCAR-5 ovarian and in the experiment on NCI-H23 lung was greater than 100 µM throughout. Also, the TGI in the experiment with CAKI-1 renal, in the experiment with HL-60(TB) leukemia, in the experiment on NCI/ADR-RES ovarian, in the experiment with MDA-MB-435, with RPMI-8226 leukemia and in the experiment on SK-MEL-2 melanoma was greater than 100 µM in each case. For the same compound, the TGI with OVCAR-3 ovarian, in the experiment with SN12C renal, in the experiment with MDA-MB-231 breast and in the experiment with HCT-116 colon was greater than 100 µM each time.

For the origin of these results see PubChem BioAssay (NCI).
